Results from publication PMC5322520, “TubZ filament assembly dynamics requires the flexible C-terminal tail” (Scientific Reports, 2017).

How the values were obtained:
CbTubZ316 = molecular target: T1, CbTubZ316 (Clostridium phage c-st, UniProt Q331T7); conditions: nucleotide-binding pocket; crystals at pH 5.5, 22 °C
T1 construct: gene tubZ

BtTubZ = molecular target: T2, BtTubZ (Bacillus thuringiensis, UniProt Q8KNP3); experiment: HPLC of polymer-bound nucleotide; type: biochemical
T2 construct: gene tubZ; construct not described in main text; filaments
T2 sequence (Q8KNP3 whole entry): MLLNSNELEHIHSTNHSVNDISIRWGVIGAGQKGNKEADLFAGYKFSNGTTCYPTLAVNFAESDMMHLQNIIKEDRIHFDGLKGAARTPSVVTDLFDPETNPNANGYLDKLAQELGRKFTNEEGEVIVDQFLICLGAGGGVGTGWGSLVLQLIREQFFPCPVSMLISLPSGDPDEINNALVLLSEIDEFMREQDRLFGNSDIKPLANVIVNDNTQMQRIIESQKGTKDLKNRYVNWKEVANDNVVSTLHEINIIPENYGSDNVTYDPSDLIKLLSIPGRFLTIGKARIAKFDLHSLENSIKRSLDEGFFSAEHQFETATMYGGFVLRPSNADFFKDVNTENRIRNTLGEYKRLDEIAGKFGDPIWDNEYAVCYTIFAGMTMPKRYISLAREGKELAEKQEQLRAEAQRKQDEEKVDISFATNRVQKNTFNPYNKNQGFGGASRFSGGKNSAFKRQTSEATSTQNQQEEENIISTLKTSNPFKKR

T1 sequence (Q331T7 1-316 limits assumed): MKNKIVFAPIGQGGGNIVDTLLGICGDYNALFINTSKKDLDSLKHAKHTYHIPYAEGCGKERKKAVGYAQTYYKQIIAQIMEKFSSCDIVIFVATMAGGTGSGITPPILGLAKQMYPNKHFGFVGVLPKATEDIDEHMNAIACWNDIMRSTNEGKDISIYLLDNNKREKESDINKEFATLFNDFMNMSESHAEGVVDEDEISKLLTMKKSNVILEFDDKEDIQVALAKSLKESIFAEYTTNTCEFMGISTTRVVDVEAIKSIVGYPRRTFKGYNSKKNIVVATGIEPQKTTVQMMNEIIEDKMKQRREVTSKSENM

With `Nc1nc2c(ncn2[C@@H]2O[C@H](COP(=O)(O)OP(=O)(O)O)[C@@H](O)[C@H]2O)c(=O)[nH]1` [GDP] the “X-ray crystal structure, 2.4 Å” value (CbTubZ316) was “TubZ316 displays GDP at the nucleotide-binding pocket”.

For `Nc1nc2c(ncn2[C@@H]2O[C@H](COP(=O)(O)OP(=O)(O)OP(O)(O)=S)[C@@H](O)[C@H]2O)c(=O)[nH]1` [GTP-γ-S], the “HPLC of polymer-bound nucleotide” value (BtTubZ; filaments assembled with GTP-γ-S) was “nucleotide content of BtTubZ filaments assembled with GTP- γ-S and GTP”.

`Nc1nc2c(ncn2[C@@H]2O[C@H](COP(=O)(O)OP(=O)(O)OP(=O)(O)O)[C@@H](O)[C@H]2O)c(=O)[nH]1` [GTP] was tested, and the “HPLC of polymer-bound nucleotide” value (BtTubZ; filaments assembled with GTP) was “nucleotide content of BtTubZ filaments assembled with GTP- γ-S and GTP”.
